Data: patent publication US20250114345A1, “COMPOUNDS AND COMPOSITIONS AS CBP/P300 DEGRADERS AND USES THEREOF” (Oncopia Therapeutics, Inc. d/b/a/ SK Life Science Labs, priority 2023, published 2025)

Molecular target: T1, p300 (Homo sapiens, UniProt Q09472)
T1 construct: host or cells: A549 P300 HiBit cells
Assay: P300 degradation, HiBit technology in A549 P300 HiBit cells (2 h)
Type: cell-based
Details: 2 hrs post treatment; for Dmax: A549, A549 P300 HiBit cells; for DC50: A549 P300 HiBit cells
How it was run: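 Degradation potency and Dmax came from luminescence after 10 min room-temperature lysis with HiBit detection buffer. Beforehand, HiBit-tagged A549 lines received serial compound dilutions (10 mM DMSO stocks) at 37 °C, 5% CO2. CBP cells were read at 24 h, p300 cells at 2 h.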

T1 sequence (Q09472 whole entry): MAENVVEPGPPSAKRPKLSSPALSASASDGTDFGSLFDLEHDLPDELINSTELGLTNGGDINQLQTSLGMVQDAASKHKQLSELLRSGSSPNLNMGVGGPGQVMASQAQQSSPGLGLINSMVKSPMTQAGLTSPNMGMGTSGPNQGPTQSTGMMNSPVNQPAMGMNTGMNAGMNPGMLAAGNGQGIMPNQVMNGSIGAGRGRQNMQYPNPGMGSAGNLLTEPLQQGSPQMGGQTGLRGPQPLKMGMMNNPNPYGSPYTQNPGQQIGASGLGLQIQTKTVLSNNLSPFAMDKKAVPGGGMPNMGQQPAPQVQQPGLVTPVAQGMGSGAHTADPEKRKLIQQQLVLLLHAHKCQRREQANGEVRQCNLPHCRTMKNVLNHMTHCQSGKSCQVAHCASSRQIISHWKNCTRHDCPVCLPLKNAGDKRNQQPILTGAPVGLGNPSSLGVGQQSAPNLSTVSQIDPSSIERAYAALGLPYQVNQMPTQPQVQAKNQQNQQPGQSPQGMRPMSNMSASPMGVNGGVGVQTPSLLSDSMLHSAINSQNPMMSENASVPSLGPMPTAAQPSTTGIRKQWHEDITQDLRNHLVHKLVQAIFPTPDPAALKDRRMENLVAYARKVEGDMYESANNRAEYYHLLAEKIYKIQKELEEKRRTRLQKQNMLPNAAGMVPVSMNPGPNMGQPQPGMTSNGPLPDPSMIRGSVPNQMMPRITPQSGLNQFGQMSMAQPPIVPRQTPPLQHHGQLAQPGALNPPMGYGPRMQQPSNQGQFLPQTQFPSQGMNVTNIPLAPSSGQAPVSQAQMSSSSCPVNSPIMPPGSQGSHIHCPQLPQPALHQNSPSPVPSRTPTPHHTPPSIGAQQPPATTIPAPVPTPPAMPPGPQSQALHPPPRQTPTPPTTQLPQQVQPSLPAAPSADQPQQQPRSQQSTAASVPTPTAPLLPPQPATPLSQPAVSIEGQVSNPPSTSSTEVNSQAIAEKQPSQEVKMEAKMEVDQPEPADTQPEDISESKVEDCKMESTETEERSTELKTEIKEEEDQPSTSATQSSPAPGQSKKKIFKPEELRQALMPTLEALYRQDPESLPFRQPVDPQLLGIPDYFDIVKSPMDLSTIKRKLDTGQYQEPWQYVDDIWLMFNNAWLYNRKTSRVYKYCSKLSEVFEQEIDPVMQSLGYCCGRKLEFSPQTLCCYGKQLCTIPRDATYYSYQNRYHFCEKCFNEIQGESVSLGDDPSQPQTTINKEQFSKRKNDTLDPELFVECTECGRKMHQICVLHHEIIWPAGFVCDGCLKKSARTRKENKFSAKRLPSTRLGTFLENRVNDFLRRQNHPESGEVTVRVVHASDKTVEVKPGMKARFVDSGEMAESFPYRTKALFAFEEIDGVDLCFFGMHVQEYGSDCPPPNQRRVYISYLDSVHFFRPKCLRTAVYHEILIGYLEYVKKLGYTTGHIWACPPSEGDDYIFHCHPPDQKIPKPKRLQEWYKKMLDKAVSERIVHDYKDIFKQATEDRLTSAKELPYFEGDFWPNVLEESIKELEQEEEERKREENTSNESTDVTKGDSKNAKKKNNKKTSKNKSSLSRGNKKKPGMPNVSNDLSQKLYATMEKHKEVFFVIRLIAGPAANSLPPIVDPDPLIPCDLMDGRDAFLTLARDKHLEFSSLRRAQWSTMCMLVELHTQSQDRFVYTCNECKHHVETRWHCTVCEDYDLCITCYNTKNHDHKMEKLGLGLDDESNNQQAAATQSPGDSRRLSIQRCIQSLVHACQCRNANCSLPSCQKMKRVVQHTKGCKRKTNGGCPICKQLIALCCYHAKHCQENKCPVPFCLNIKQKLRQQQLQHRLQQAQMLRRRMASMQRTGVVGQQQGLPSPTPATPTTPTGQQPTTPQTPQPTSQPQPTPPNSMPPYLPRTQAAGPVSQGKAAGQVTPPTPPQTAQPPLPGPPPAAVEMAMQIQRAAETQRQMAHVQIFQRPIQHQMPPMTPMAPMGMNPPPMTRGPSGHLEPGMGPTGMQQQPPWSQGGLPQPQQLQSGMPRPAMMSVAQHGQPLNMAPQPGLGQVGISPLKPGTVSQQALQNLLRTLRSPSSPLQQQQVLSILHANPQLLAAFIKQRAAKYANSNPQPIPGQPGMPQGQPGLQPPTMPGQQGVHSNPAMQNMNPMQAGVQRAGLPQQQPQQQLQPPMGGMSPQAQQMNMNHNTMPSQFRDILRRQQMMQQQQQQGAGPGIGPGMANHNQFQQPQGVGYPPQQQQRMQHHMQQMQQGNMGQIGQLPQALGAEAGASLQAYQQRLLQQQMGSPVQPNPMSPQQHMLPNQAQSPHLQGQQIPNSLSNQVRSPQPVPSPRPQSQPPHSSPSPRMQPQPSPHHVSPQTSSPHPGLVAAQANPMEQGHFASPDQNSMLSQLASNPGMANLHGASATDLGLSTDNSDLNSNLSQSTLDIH

Row | Compound | Dmax [%] | DC50 [nM]
1 | CCc1cc(N(C)c2ccc(-c3cnc(C(=O)NCC#Cc4cccc(NC5CCC(=O)NC5=O)c4)c(C)c3)c(C(F)(F)F)c2)c2cc(C)c(=O)n(C)c2c1 (stereo not drawn) [Example B14, N-(3-(3-((2,6-Dioxopiperidin-3-yl)amino)phenyl)prop-2-yn-1-yl)-5-(4-((7-ethyl-1,3-dimethyl-2-oxo-1,2-dihydroquinolin-5-yl)(methyl)amino)-2-(trifluoromethyl)phenyl)-3-methylpicolinamide] | 60 to 79 | 10 to 99
2 | CCc1cc(N(C)c2ccc(-c3cnc(C(=O)NCC#Cc4cccc(NC5CCC(=O)NC5=O)c4)c(C)c3)c(C)c2)c2cc(C)c(=O)n(C)c2c1 (stereo not drawn) [Example B15, N-(3-(3-((2,6-Dioxopiperidin-3-yl)amino)phenyl)prop-2-yn-1-yl)-5-(4-((7-ethyl-1,3-dimethyl-2-oxo-1,2-dihydroquinolin-5-yl)(methyl)amino)-2-methylphenyl)-3-methylpicolinamide] | > 80 | 10 to 99
3 | CCc1cc(Oc2ccc(-c3cnc(C(=O)NCC#Cc4cccc(NC5CCC(=O)NC5=O)c4)c(C)c3)nc2)c2cc(C)c(=O)n(C)c2c1 (stereo not drawn) [Example B17, N-(3-(3-((2,6-Dioxopiperidin-3-yl)amino)phenyl)prop-2-yn-1-yl)-5-((7-ethyl-1,3-dimethyl-2-oxo-1,2-dihydroquinolin-5-yl)oxy)-5′-methyl-[2,3′-bipyridine]-6′-carboxamide] | < 20 | > 1000
4 | CCc1cc(N(C)c2ccc(-c3cnc(C(=O)NCC#Cc4cccc(NC5CCC(=O)NC5=O)c4)c(C)c3)cc2)c2cc(C)c(=O)n(C)c2c1 (stereo not drawn) [Example B18, N-(3-(3-((2,6-Dioxopiperidin-3-yl)amino)phenyl)prop-2-yn-1-yl)-5-(4-((7-ethyl-1,3-dimethyl-2-oxo-1,2-dihydroquinolin-5-yl)(methyl)amino)phenyl)-3-methylpicolinamide] | > 80 | 10 to 99
5 | CCc1cc(N(C)c2ccc(-c3cnc(C(=O)NCC#Cc4cccc(NC5CCC(=O)NC5=O)c4)c(C)c3)c(F)c2)c2cc(C)c(=O)n(C)c2c1 (stereo not drawn) [Example B19, N-(3-(3-((2,6-Dioxopiperidin-3-yl)amino)phenyl)prop-2-yn-1-yl)-5-(4-((7-ethyl-1,3-dimethyl-2-oxo-1,2-dihydroquinolin-5-yl)(methyl)amino)-2-fluorophenyl)-3-methylpicolinamide] | > 80 | 10 to 99
6 | Cc1cc(-c2cc3c(cc2F)N(c2cccc4c2cc(C)c(=O)n4C)CCO3)cnc1C(=O)NCC#Cc1ccc2occ(C3CCC(=O)NC3=O)c2c1 (stereo not drawn) [Example B21, 5-(4-(1,3-dimethyl-2-oxo-1,2-dihydroquinolin-5-yl)-6-fluoro-3,4-dihydro-2H-benzo[b][1,4]oxazin-7-yl)-N-(3-(3-(2,6-dioxopiperidin-3-yl)benzofuran-5-yl)prop-2-yn-1-yl)-3-methylpicolinamide] | > 80 | 1 to 9.9
7 | Cc1cc2c(N3CCCc4cc(-c5ccc(C(=O)NCC#Cc6ccc7occ(C8CCC(=O)NC8=O)c7c6)nc5)c(C(F)F)cc43)cccc2n(C)c1=O (stereo not drawn) [Example B22, 5-(7-(difluoromethyl)-1′,3′-dimethyl-2′-oxo-1′,2′,3,4-tetrahydro-2H-[1,5′-biquinolin]-6-yl)-N-(3-(3-(2,6-dioxopiperidin-3-yl)benzofuran-5-yl)prop-2-yn-1-yl)picolinamide] | > 80 | 1 to 9.9
8 | Cc1cc2c(N3CCCc4nc(-c5ccc(C(=O)NCC#Cc6ccc7occ(C8CCC(=O)NC8=O)c7c6)nc5)ncc43)nc(N3CCC(F)CC3)cc2n(C)c1=O (stereo not drawn) [Example B27, N-(3-(3-(2,6-dioxopiperidin-3-yl)benzofuran-5-yl)prop-2-yn-1-yl)-5-(5-(7-(4-fluoro-piperidin-1-yl)-1,3-dimethyl-2-oxo-1,2-dihydro-1,6-naphthyridin-5-yl)-5,6,7,8-tetrahydropyrido[3,2-d]pyrimidin-2-yl) picolinamide] | 60 to 79 | 1 to 9.9
9 | Cc1cc2c(N3CCOc4cc(-c5ccc(C(=O)NCC#Cc6ccc7occ(C8CCC(=O)NC8=O)c7c6)nc5)ccc43)cc(C3CCOCC3)cc2n(C)c1=O (stereo not drawn) [Example B41, 5-(4-(1,3-dimethyl-2-oxo-7-(tetrahydro-2H-pyran-4-yl)-1,2-dihydroquinolin-5-yl)-3,4-dihydro-2H-benzo[b][1,4]oxazin-7-yl)-N-(3-(3-(2,6-dioxopiperidin-3-yl)benzofuran-5-yl)prop-2-yn-1-yl)picolinamide] | > 80 | 1 to 9.9

Next, values leading:

Row | Dmax [%] | DC50 [nM] | Compound
10 | > 80 | < 1 | Cc1cc2c(N3CCN(C)c4cc(-c5ccc(C(=O)NCC#Cc6ccc7occ(C8CCC(=O)NC8=O)c7c6)nc5)ncc43)cc(C3CCOCC3)cc2n(C)c1=O (stereo not drawn) [Example B31, 5-(4-(1,3-dimethyl-2-oxo-7-(tetrahydro-2H-pyran-4-yl)-1,2-dihydroquinolin-5-yl)-1-methyl-1,2,3,4-tetrahydropyrido[3,4-b]pyrazin-7-yl)-N-(3-(3-(2,6-dioxopiperidin-3-yl)benzofuran-5-yl)prop-2-yn-1-yl) picolinamide]
11 | > 80 | 1 to 9.9 | Cc1cc2c(N3CCN(C)c4nc(-c5ccc(C(=O)NCC#Cc6ccc7occ(C8CCC(=O)NC8=O)c7c6)nc5)ncc43)cccc2n(C)c1=O (stereo not drawn) [Example B33, 5-(5-(1,3-dimethyl-2-oxo-1,2-dihydroquinolin-5-yl)-8-methyl-5,6,7,8-tetrahydropteridin-2-yl)-N-(3-(3-(2,6-dioxopiperidin-3-yl)benzofuran-5-yl)prop-2-yn-1-yl)picolinamide]
12 | > 80 | < 1 | Cc1cc2c(N3CCCc4cc(-c5ccc(C(=O)NCC#Cc6cc7c(C8CCC(=O)NC8=O)cccc7o6)nc5)nnc43)cccc2n(C)c1=O (stereo not drawn) [Example B34, 5-(8-(1,3-dimethyl-2-oxo-1,2-dihydroquinolin-5-yl)-5,6,7,8-tetrahydropyrido[2,3-c]pyridazin-3-yl)-N-(3-(4-(2,6-dioxopiperidin-3-yl)benzofuran-2-yl)prop-2-yn-1-yl)picolinamide]
13 | > 80 | 1 to 9.9 | Cc1cc2c(N3CCCc4nc(-c5cnc(C(=O)NCC#Cc6cc7c(C8CCC(=O)NC8=O)cccc7o6)c(Cl)c5)ncc43)cccc2n(C)c1=O (stereo not drawn) [Example B36, 3-chloro-5-(5-(1,3-dimethyl-2-oxo-1,2-dihydroquinolin-5-yl)-5,6,7,8-tetrahydropyrido [3,2-d]pyrimidin-2-yl)-N-(3-(4-(2,6-dioxo-piperidin-3-yl)benzofuran-2-yl)prop-2-yn-1-yl)picolinamide]
14 | > 80 | < 1 | Cc1cc(N2CCN(C)c3cc(-c4ccc(C(=O)NCC#Cc5cc6c(C7CCC(=O)NC7=O)cccc6o5)nc4)ncc32)c2cc(C)c(=O)n(C)c2c1 (stereo not drawn) [Example B40, N-(3-(4-(2,6-dioxopiperidin-3-yl)benzofuran-2-yl)prop-2-yn-1-yl)-5-(1-methyl-4-(1,3,7-trimethyl-2-oxo-1,2-dihydroquinolin-5-yl)-1,2,3,4-tetrahydropyrido[3,4-b]pyrazin-7-yl) picolinamide]
15 | > 80 | 1 to 9.9 | CCc1cc(N2CCCc3nc(-c4ccc(C(=O)NCC#Cc5ccc6occ(C7CCC(=O)NC7=O)c6c5)nc4)ncc32)c2cc(C)c(=O)n(C)c2c1 (stereo not drawn) [Example B43, N-(3-(3-(2,6-dioxopiperidin-3-yl)benzofuran-5-yl)prop-2-yn-1-yl)-5-(5-(7-ethyl-1,3-dimethyl-2-oxo-1,2-dihydroquinolin-5-yl)-5,6,7,8-tetrahydropyrido[3,2-d]pyrimidin-2-yl) picolinamide]
